These results are taken from US10557124B2, “Compositions and methods for obtaining stem cell derived lung tissue, and related uses thereof” (The Regents of the University of Michigan, priority 2015, dated 2020).

The test system of experiment [1] is anterior foregut endoderm (hESC-derived, ActivinA then NOG/SB). The experiment in a line: qRT-PCR of SHH, NKX2.1, PAX8 in foregut endoderm monolayer cultures treated with FGF/HH modulators. To be noted: for SHH expression / NKX2.1 expression / PAX8 expression: vs foregut control (FGF2: vs untreated endoderm controls), FGF2 50/500 ng/mL, SU 10 μM; for NKX2.1 expression / PAX8 expression: Sant-2 10 μM; for PAX8 expression: SAG 1 μM. The class given is cell-based, human. The source says:
Many signaling pathways are important for lung induction and development (see, e.g., Wong A P, et al., Nat Biotechnol. 2012 Aug. 26; Huang S X L, et al., Nature; 2013 Dec. 1; 1-11; Firth A L, et al., Proceedings of the National Academy of Sciences. 2014 Apr. 29; 111(17):E1723-30; Mou H, et al., Cell Stem Cell. 2012 Apr. 6; 10(4):385-97; Ghaedi M, et al., J. Clin. Invest. 2013 Nov. 1; 123(11):4950-62; Longmire T A, et al., Cell Stem Cell. 2012 Apr. 6; 10(4):398-411; Rankin S A, Zorn A M. Gene Regulatory Networks Governing Lung Specification. J Cell Biochem. 2014 Mar. 19; Morrisey E E, et al., Developmental Cell. Elsevier Inc; 2010 Jan. 19; 18(1):8-23; Min H, et al., Genes & Development. 1998 Oct. 15; 12(20):3156-61; Weaver M, et al., Development. 2000 June; 127(12):2695-704). […] 2011 Feb. 3; 470(7332):105-9; Wells J M, et al., Development. 2014 February; 141(4):752-60; Motoyama J, et al., Nat Genet. 1998 September; 20(1):54-7) and Hh signaling is important for lung mesenchyme proliferation in vivo (see, e.g., Bellusci S, et al., Development. 1997 January; 124(1):53-63). […] It has been reported that approximately 85-95% of cells are endoderm, but a portion of the remaining cells are mesodermal and this small mesodermal population is maintained in the spheroids and organoids (see, e.g., Spence J R, et al., Nature. 2011 Feb. 3; 470(7332):105-9; McCracken K W, et al., Nature; 2014 Oct. 29; 1-19; Green M D, et al., Nat Biotechnol.; 2011 Feb. 27; 1-7) (FIG. 4). Therefore, based on mouse and hPSC studies, it was hypothesized that FGF and/or HH signaling would induce an NKX2.1+ lung lineage in anterior foregut endoderm. To test this hypothesis experiments initially focused on adherent endoderm monolayer cultures to optimize induction conditions. Cultures were treated for 4 days with ActivinA followed by an additional 4 days with NOG/SB (referred to as Foregut). Controls consisted of ActivinA treatment only followed by no additional growth factors (Endoderm controls), or ActivinA followed by NOG/SB, followed by no additional factors (Foregut controls). All experimental groups were compared to both endoderm and foregut controls (FIG. 6). The ability of FGF2 to induce SHH, NKX2.1 and PAX8 was first tested by exposing foregut cultures to low and high concentrations of FGF2 (50,500 ng/mL) (FIG. 6A). […] It was also observed that dual NOG/SB inhibition in endoderm cultures induced robust NKX2.1 and PAX8 expression without adding FGF2 (FIG. 1B, 6A). Thus, it was desired to determine if NKX2.1 expression in foregut cultures was due to endogenous FGF and/or HH signaling. To test this, the FGF or HH pathway was inhibited with small molecules SU5402 (SU, 10 μm) and Sant-2 (10 μm) respectively (FIG. 6B-C). Treating foregut cultures with the FGF inhibitor SU caused a significant, robust reduction in PAX8 and a modest reduction in SHH, while NKX2.1 expression was unchanged compared to foregut control (FIG. 6B). […] To test if HH signaling was able to induce NKX2.1 in foregut cultures, the Smoothened agonist, SAG (1 μM), was added to foregut cultures. The addition of SAG induced a 6.5 fold increase of NKX2.1 expression above foregut controls (FIG. 6D).
This combination caused an additional increase in NKX2.1 expression (21 fold vs. 6.5 fold with SAG only, when compared to foregut) and a concomitant decrease in PAX8 mRNA (FIG. 6D).
After differentiation into definitive endoderm, foregut endoderm was differentiated, essentially as described (see, e.g., Green M D, et al., Nat Biotechnol. Nature Publishing Group; 2011 Feb. 27; 1-7). Briefly, cells were incubated in foregut media: Advanced DMEM/F12 plus N-2 and B27 supplement, 10 mM Hepes, lx L-Glutamine (200 mM), lx Penicillin-streptomycin (5,000 U/mL, all from Life Technologies) with 200 ng/mL Noggin (NOG, R&D Systems) and 10 μM SB431542 (SB, Stemgent) for 4 days. […]
(In general: Real-time PCR tracks product formation cycle by cycle.)

Experiment [2] concerns NOG/SB/F/Ch/SAG treated foregut spheroids. The experiment in a line: Expansion of foregut spheroids in Matrigel into lung organoids. It is filed as cell-based, human. To be noted: FGF10 500 ng/mL, Matrigel 3D culture. The source says:
NOG/SB/F/Ch/SAG treated foregut spheroids were embedded in Matrigel to provide a 3D growth environment. Spheroids maintained in basal media supplemented with 1% FBS lost ECAD+ epithelial structures and were mainly comprised of mesenchyme within 20 days of 3D culture (FIG. 9D,E). FGF10 is essential for branching morphogenesis and maintenance of lung progenitor cells during development as well as tissue homeostasis in the adult lung (see, e.g., Motoyama J, et al., Nat Genet. 1998 September; 20(1):54-7; Li Y, et al., Developmental Biology. 2004 Jun. 1; 270(1):214-31; Bellusci S, et al., Development. 1997 January; 124(1):53-63; Min H, et al., Genes & Development. 1998 Oct. 15; 12(20):3156-61; Weaver M, et al., Development. 2000 June; 127(12):2695-704; Agha El E, et al., Development. 2013 Dec. 18; Volckaert T, et al., Development 2013 September; 140(18):3731-42). It was observed that the addition of FGF10 (500 ng/mL) allowed spheroids to expand and be passaged for over 100 days. FGF10 promoted the maintenance of ECAD+ epithelial structures with less mesenchymal contributions compared to both basal and FGF inhibitor conditions (FIG. 10D). […] SOX2+ domains and SOX9+ domains were distributed throughout the entire HLO as determined by whole mount immunofluorescence and confocal Z-sections (FIG. 14). […]

Consider `Cc1c[nH]c(/C=C2\C(=O)Nc3ccccc32)c1CCC(=O)O` [SU5402], for which, in experiment [1] (compared to foregut controls), the GLI1 expression result is “not significantly different” and the PTCH1 expression result is “not significantly different”. In experiment [1], the SHH expression entry is on record as “significant reduction”, the NKX2.1 expression result is recorded as “not significantly different” and the PAX8 expression result is reported as “significant reduction”.

On to “FGF2: fibroblast growth factor 2 (R&D systems)”, for which, in experiment [1], the SHH expression entry is “dose dependent increase”, the NKX2.1 expression entry is recorded as “modest increase” and the PAX8 expression entry was “dose dependent increase”.

As to Sant-2, in experiment [1], the NKX2.1 expression entry was “significant reduction”.

B1: FGF10: protein that belongs to the fibroblast growth factor (FGF) family (protein, UniProt O15520 38-208, looked up)
Fibroblast growth factor 10: QALGQDMVSPEATNSSSSSFSSPSSAGRHVRSYNHLQGDVRWRKLFSFTKYFLKIEKNGKVSGTKKENCPYSILEITSVEIGVVAVKAINSNYYLAMNKKGKLYGSKEFNNDCKLKERIEENGYNTYASFNWQHNGRQMYVALNGKGAPRRGQKTRRKNTSAHFLPMVVHS
For the molecule B1, the “time spheroids could expand and be passaged” value in experiment [2] is reported as “over 100 days”.
